# Legend:
# [1] = system: primary human myeloma tumor cells; experiment: BCMA-specific T-ChARM T cells co-cultured with primary myeloma cells in the presence of GSI (cytokines, proliferation); assay type: cell-based
# Experimental: (A) IL-2 production by BCMA CAR-T cells (BCMA-specific T-ChARM C11 3ST-CD28 and BCMA-specific T-ChARM C11 3ST-41BB) or control CD19sh CAR (short spacer)-T cells co-cultured with primary human myeloma tumor cells for 24 hours alone or with various concentrations of GSI RO429097 (0.003 μM to 3.0 μM).
# (B) IFN-γ production by BMCA T-ChARM T cells co-cultured with myeloma cells at various concentrations of RO429097.
# (O) Intracellular staining showing IFN-γ production (y-axis) and CD8 expression (x-axis) by T-ChARM T cells of the present disclosure cultured with primary MM cells from 2 patients in the absence (0 μM; left panels) or presence (1 μM; right panels) of GSI RO4929097.
# (P) IFN-γ production (geometric mean fluorescence intensity (gMFI)) by T-ChARM T cells of the present disclosure cultured with primary MM cells in the presence of the indicated concentration of RO4929097 (x-axis).
# (Q) IFN-γ production (normalized MFI; y-axis) by T-ChARM T cells of the present disclosure cultured with primary MM cells in the presence of the indicated concentration of RO4929097 (x-axis).
# (R) Proliferation of T-ChARM T cells of the present disclosure in the presence of primary MM cells that were untreated (grey shading) or treated with 1.0 μM GSI RO4929097.
# To examine the effect of a GSI on CAR T cell activity against BCMA^+ multiple myeloma, IL-2 production by BCMA CAR-T cells (BCMA-specific T-ChARM C11 3ST-CD28 and BCMA-specific T-ChARM C11 3ST-41BB) or control CD19sh CAR (short spacer)-T cells was measured after co-culture with primary human myeloma tumor cells for 24 hours in media containing at various concentrations of GSI RO429097 (0.003 μM to 3.0 μM) (FIG. 4A).
# Next, the effect of GSI on T cell functionality of T cells containing a BCMA-specific T-ChARM was examined.
# [2] = system: MM.1R myeloma cells in NSG mice; experiment: GSI activity in disseminated MM.1R xenograft model (surface BCMA, serum sBCMA); assay type: in vivo, mouse
# Experimental: (A) Experimental scheme for a disseminated xenograft murine myeloma model. NSG mice were irradiated (275 rad) to facilitate tumor engraftment and received human MM tumor cells (5×10^6 MM.1R) followed by GSI treatment (30 mg/kg). […] (B) Fold change in surface BCMA expression on myeloma cells in mice euthanized at the indicated timepoints following the second GSI administration. (C) Levels of sBCMA in sera from mouse sacrificed at the indicated timepoints after administration of RO4929097. To investigate whether the sBCMA-inhibiting effects of GSI RO4929097 described in Example 4 could be replicated in vivo, a mouse xenograft model of human MM was tested as illustrated in FIG. 6A. Briefly, immunodeficient NOD/SCID gamma (NSG) mice (The Jackson Laboratory) received sublethal irradiation (275 rad) at day −1, followed by 5×10^6 MM.1R cells the next day (day 0). GSI RO4929097 (30 mg/kg) was administered by oral gavage at day 19 and day 20. Mice were sacrificed at different times after the second gavage administration of the GSI and blood and bone marrow samples were taken for analysis. GSI dosing was followed by a rapid increase (>3-fold by 4 hours post-second gavage) in surface BCMA expression on the tumor cells (FIG. 6B) and a concurrent decrease in sBCMA (FIG. 6C).
compound,measurement,setting,value
CC(C)(C(=O)NCC(F)(F)C(F)(F)F)C(=O)N[C@@H]1C(=O)Nc2ccccc2-c2ccccc21 [RO4929097],IL-2 production by BCMA T-ChARM T cells,"[1]; 24 hours co-culture, GSI 0.003 μM to 3.0 μM",dose dependent increase
same,proliferation of CFSE-labeled BCMA-specific T-ChARM T cells,[1]; 3 days co-culture with primary myeloma cells,increased in a dose dependent manner
same,IFN-γ production and CD8 expression by co-cultured T-ChARM T cells,[1]; GSI treatment of primary myeloma tumor samples,greatly improved
same,IFNγ production by BCMA T-ChARM T cells,"[1]; co-culture with myeloma cells, various GSI concentrations",increased
same,proliferation of T-ChARM T cells,[1]; primary MM cells treated with 1.0 μM GSI vs untreated,increased proliferation
same,GSI concentration at which effects on T-ChARM T cell IFN-γ were seen,[1]; primary myeloma tumor samples,≥ 0.1 µM
same,time after second gavage within which observed effects were generally reduced,[2]; 30 mg/kg oral gavage,≤ 48 h
same,sBCMA in sera,[2]; 30 mg/kg oral gavage day 19 and 20,decrease
same,increase in surface BCMA expression on tumor cells,"[2]; 30 mg/kg oral gavage day 19 and 20, 4 hours post-second gavage",> 3 fold

# From patent US11845803B2, “Combination therapies for treatment of BCMA-related cancers and autoimmune disorders” (Fred Hutchinson Cancer Center, priority 2017, dated 2023)
